Test results reported in PMC5291822 (Bioorganic & medicinal chemistry, 2016).

Molecular target: T1, human GVIA iPLA2 (Homo sapiens, UniProt O60733)
T1 sequence (O60733 1-806): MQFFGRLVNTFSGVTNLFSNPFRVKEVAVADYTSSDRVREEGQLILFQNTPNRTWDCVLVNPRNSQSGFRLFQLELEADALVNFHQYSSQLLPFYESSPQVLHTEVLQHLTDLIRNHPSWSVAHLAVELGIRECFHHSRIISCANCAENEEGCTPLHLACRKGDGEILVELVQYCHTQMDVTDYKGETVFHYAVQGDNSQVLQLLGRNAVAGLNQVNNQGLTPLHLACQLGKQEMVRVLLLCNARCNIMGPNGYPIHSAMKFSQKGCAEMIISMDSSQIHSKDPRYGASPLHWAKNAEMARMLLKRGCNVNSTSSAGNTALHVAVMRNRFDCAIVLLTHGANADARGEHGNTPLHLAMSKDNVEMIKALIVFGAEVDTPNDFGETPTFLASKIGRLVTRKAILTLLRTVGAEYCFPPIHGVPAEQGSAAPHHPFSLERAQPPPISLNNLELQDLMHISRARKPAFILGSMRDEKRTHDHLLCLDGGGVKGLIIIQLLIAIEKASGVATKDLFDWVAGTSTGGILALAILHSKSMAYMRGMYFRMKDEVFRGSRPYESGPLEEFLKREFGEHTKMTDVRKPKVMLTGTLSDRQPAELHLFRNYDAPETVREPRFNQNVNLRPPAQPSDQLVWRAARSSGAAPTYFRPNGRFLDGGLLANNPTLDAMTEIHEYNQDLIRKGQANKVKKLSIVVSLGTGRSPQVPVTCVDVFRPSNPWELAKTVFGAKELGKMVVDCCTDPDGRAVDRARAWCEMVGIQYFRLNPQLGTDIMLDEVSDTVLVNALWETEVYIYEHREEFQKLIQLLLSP
Assay: mixed micelle modified Dole assay, GVIA iPLA2
Assay type: biochemical
Conditions: for XI(50) GVIA iPLA2: mole fraction of inhibitor in total substrate interface giving 50% inhibition

Row | SMILES | inhibitory activity on GVIA iPLA2 (in words) | IC50 | XI(50) GVIA iPLA2 | times more potent inhibition of GVIA iPLA2 than of GIVA cPLA2 (selectivity GVIA iPLA2 over GIVA cPLA2)
1 | CCCC[C@H](NC(=O)C(=O)CCCCc1ccccc1)C(=O)NCC(=O)O [13a, (S)-2-(2-(2-Oxo-6-phenylhexanamido)hexanamido)acetic acid] | totally inactive |  |  | 
2 | CCCC[C@H](NC(=O)C(=O)CCCCc1ccc2ccccc2c1)C(=O)NCC(=O)O [13b, (S)-2-(2-(6-(Naphthalen-2-yl)-2-oxohexanamido)hexanamido) acetic acid] | totally inactive |  |  | 
3 | CCCC[C@@H](COCC(=O)O)NC(=O)C(=O)CCCCc1ccc(OC)cc1 [20d, (S)-2-((2-(6-(4-Methoxyphenyl)-2-oxohexanamido)hexyl)oxy)acetic acid] | totally inactive |  |  | 
4 | CCCC[C@H](NC(=O)C(=O)CCCCc1ccc(OC)cc1)C(=O)NCC(=O)OC(C)(C)C [compound 12c, (S)-tert-Butyl 2-(2-(6-(4-methoxyphenyl)-2-oxohexanamido)hexanamido)acetate] |  | 6.6 µM | 0.012 mole fraction | 
5 | CCCC[C@H](NC(=O)C(=O)CCCCc1ccc(OC)cc1)C(=O)NCCCC(=O)OC(C)(C)C [compound 12e, (S)-tert-Butyl 4-(2-(6-(4-methoxyphenyl)-2-oxohexanamido)hexanamido)butanoate] |  | 3.8 µM | 0.007 mole fraction | around 13 times
6 | COc1ccc(CCCCC(=O)C(=O)N[C@@H](CC(C)C)C(=O)NCC(=O)OC(C)(C)C)cc1 [compound 22a, (S)-tert-Butyl 2-(2-(6-(4-methoxyphenyl)-2-oxohexanamido)-4-methylpentanamido)acetate] |  | 13 µM | 0.024 mole fraction | 
7 | CCCC[C@H](NC(=O)C(=O)CCCCc1ccc(OC)cc1)C(=O)NCC(=O)OCc1ccccc1 [compound 31a, (S)-Benzyl 2-(2-(6-(4-methoxyphenyl)-2-oxohexanamido)hexanamido)acetate] |  | 14 µM | 0.026 mole fraction | 
